Experimental data: patent US8916149B2, “Preventing and treating sepsis” (University of Rochester, priority 2008, dated 2014)

Columns and labels:
human neutrophils [1] = assay: Random migration of neutrophils on FN-coated cover glass (live-cell imaging); assay type: cell-based; conditions: for reversal of the inhibitory effect of rhAPC on neutrophil migration: agonists of PAR-1 and S1P1; for random migration of neutrophils on FN induced by fMLP: 10 μg/ml protein
Method: Delta T dishes were coated with human FN (50 μg/ml, BD Biosciences, San Jose, Calif.) for overnight at 4° C. and then for 4 h at room temperature. Plates were then rinsed with L-15 media. […] The cells were then added to FN-coated dishes in 1.5 ml of L-15 with 2 mg/ml of glucose. For neutrophil live cell staining, 2 μM Green Cell Tracker CMFDA (5-chloromethylfluorescein diacetate; Molecular Probes, Carlsbad, Calif.) was used. Temperature was maintained at 37° C. throughout the experiment using a FCS2 live-cell imaging chamber (Bioptechs, Butler, Pa.). Images were acquired for 30 to 60 minutes under a 10× objective lens using a Nikon TE-2000U inverted microscope. Phase contrast images were acquired every 5 seconds and fluorescence images every 30 seconds. Cell paths were traced using MetaVue™ imaging software (Molecular Devices Corporation, Downingtown, Pa.).
Random migration was investigated by adding fMLP or IL-8 to media at a final concentration of 10^−8M and analyzed by manually tracing the outline of each cell in selected frames (i.e., at 50 second intervals). The x and y coordinates of each cell were measured using ImageJ software and were corrected so that the starting position was x=0 and y=0.
The time-lapsed images of migrating neutrophils were taken under phase contrast microscopy. Each image was thresholded and binarized based on brightness to define the centroids of the neutrophils. The closest centroids between consecutive images were linked as a trajectory under the assumption that these centroids were made by the same neutrophil. The maximum distance between the closest centroids was also defined to preclude the artifacts due to cells moving into and out of the field of view.

β3 integrins = biological target: T1, β3 integrins (Homo sapiens, UniProt P05106); conditions: cited from earlier work
T1 sequence (P05106 27-788): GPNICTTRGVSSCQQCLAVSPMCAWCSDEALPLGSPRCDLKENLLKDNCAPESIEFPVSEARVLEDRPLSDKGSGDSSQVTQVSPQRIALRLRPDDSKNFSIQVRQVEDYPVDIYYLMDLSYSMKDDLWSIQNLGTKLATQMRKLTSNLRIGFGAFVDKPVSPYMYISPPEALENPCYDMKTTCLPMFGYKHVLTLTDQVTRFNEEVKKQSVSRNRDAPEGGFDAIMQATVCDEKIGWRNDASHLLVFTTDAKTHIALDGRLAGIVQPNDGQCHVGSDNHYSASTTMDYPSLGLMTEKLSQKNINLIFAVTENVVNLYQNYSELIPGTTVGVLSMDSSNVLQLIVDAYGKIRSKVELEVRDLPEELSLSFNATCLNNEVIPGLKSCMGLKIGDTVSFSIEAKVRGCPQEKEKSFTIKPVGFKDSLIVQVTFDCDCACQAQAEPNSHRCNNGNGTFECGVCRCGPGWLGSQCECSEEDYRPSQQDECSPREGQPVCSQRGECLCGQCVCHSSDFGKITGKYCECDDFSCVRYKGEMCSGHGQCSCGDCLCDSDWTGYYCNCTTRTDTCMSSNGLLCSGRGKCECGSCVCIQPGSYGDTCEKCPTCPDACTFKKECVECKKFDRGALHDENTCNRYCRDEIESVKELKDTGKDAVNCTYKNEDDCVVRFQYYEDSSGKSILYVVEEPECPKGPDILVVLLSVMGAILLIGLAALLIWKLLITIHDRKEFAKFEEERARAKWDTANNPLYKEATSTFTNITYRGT

[2] = tested on: mice challenged with an LD90 of LPS; conditions: LPS at LD90, single dose 200 μg i.v.; control 90%
Method: (§1) 200 μg of the RGD peptide or PBS was given 12 hours before and after CLP via i.v. injection (n=20 per group). […] 200 μg of the RGD peptide or PBS was given via i.v. injection before receiving […] of LPS (i.p.) (n=10 per group). The statistical significance of mortality was determined by the Kaplan-Meyer log-rank test.
In order to examine whether the RGD peptide alters mortality in ‘high-grade’ sepsis, 90% mortality was induced by endotoxemia.

β1 integrins = β1 integrins (Homo sapiens, UniProt P05556); conditions: cited from earlier work
septic mice = conditions: 'mid-grade' sepsis (CLP), 200 μg i.v. 12 hours before and after CLP
Method: as §1
CLP was used to induce acute septic peritonitis as described (Rhee et al., J Surg Res 115:74 (2003)). Briefly, mice (C57BL/6, 6-8 weeks) were anesthetized using inhaled Isoflurane, a midline incision (approximately 1 cm) was made below the diaphragm, the cecum was […], ligated approximately […] distal and then punctured through and through with a 22-gauge needle. Cecum was gently squeezed to excise its contents. Sham animals underwent the same procedure with no ligation or puncture. The abdominal incision was then closed in layers with Ethilon 6.0 suture. Mice were resuscitated with 1.0 ml of Ringer's solution via subcutaneous injection. Animals recovered under a heat lamp for approximately 30 minutes and were allowed food and water ad lib.

human neutrophils [3] = assay: Neutrophil adhesion assay on immobilized fibronectin (FN); assay type: cell-based; conditions: 10 μg/ml protein
Method: The adhesion assay was carried out essentially as described (Vorup-Jensen et al., PNAS 102:1614 (2005)). Cover slips were coated with FN in coating buffer (150 mM NaCl/20 mM Tris.HCl, pH 9.0) for over night at 4° C. and for 4 hours at room temperature. Residual binding sites were blocked by incubation of the wells with 0.05% (wt/vol) polyvinylpyrrolidone in PBS for 30 minutes at room temperature. […] The cover slips were aspirated, and washed with L15 medium. […] Cells (250 μl) were then immediately added, and further incubated at 37° C. for 15 minutes. Unbound cells were then washed with warm L15 medium. The bound cells were then fixed with formaldehyde. For each experimental condition from three independent donors, five random phase-contrast images were obtained, and the number of cells in each well was scored from printed micrographs.

α3β1 = biological target: T2, α3β1 (Homo sapiens, UniProt P05556+P26006); assay: Solid phase integrin ligand binding assay; conditions: 1 mM Mn2+, 1 mM Ca2+, 1 mM Mg2+
T2 construct: purchased US Biological, Swampscott, Mass
Method: (§2) The solid phase binding assay was performed using purified soluble human α3β1, α5β1, and αVβ3 (US Biological, Swampscott, Mass.). Two (2) μg/ml of soluble integrins were added to microtiter wells for capture with immobilized monoclonal antibody against β1 or β3 subunits (mAb TS2/6 for β1 and mAb BB10 (Chemicon, Temecula, Calif.) for β3 integrins). […] After washing, bound APC was chromogenically detected by peroxidase-streptavidin conjugate anti-PC (Diapharma, West Chester, Ohio) or chromogenic substrate S-2366 (Diapharma, West Chester, Ohio). To minimize dissociation, all wash buffers contained 1 mM Mn^2+, and <15 minutes elapsed between the end of binding and beginning of color development. Functional blocking antibodies for integrins were from Chemicon (Temecula, Calif.).
(§3) Among the neutrophil integrins that recognize the RGD motif, α3β1, α5β1, and αVβ3 are key in regulating neutrophil chemotaxis (Yauch et al., Mol. Biol. Cell 9:2751 (1998); Burns et al., J. Immunol. 166:4644 (2001); Sixt et al., J. Biol. Chem. 276:18878 (2001)). To test whether APC can bind directly to the integrins, an ELISA-like solid phase receptor-binding assay was performed (FIG. 2E). Soluble α3β1, α5β1, and αVβ3 were captured onto microtiter wells using mAbs specific for β1 or β3.

α5β1 = biological target: T3, α5β1 (Homo sapiens, UniProt P05556+P08648); assay: Solid phase integrin ligand binding assay; conditions: 1 mM Mn2+, 1 mM Ca2+, 1 mM Mg2+
T3 construct: purchased US Biological, Swampscott, Mass
Method: as §2, §3

αVβ3 = biological target: T4, αVβ3 (Homo sapiens, UniProt P05106+P06756); assay: Solid phase integrin ligand binding assay; conditions: 1 mM Mn2+, 1 mM Ca2+, 1 mM Mg2+
T4 construct: purchased US Biological, Swampscott, Mass
Method: as §2, §3

hEPCR-mCFP and β1-mYFP = biological target: T5, hEPCR-mCFP and β1-mYFP (Homo sapiens, UniProt P05556+Q9UNN8); assay: Dynamic FRET (TIRF) between hEPCR-mCFP and β1-mYFP in HEK293 cells; assay type: cell-based
T5 construct: expressed in transfected cells; host or cells: HEK293
Method: Dynamic FRET imaging was carried out using a Nikon Eclipse TE2000-U microscope (Nikon, Melville, N.Y.) equipped with a Dual-View (Optical Insights, Tucson, Ariz.) and CFP/YFP dual-band filter set (Chroma, Rockingham, Vt.). TIRF imaging was performed with a white light TIRF aperture diaphragm and a 100×TIRF 1.49 NA oil immersion objective coupled to a QuantEM EMCCD (Roper Scientific, Tucson, Ariz.). The microscope was controlled by NIS element software (Nikon, Melville, N.Y.) and data analysis was performed with AutoDeblur (Autoquant Imaging, Troy, N.Y.) by the sensitized emission method (Gordon et al., Biophys. J. 74:2702 (1998)). 48 hours after co-transfection with hEPCR-mCFP and β1-mYFP DNA construct in Delta T dish (Fisher Scientific, Pittsburgh, Pa.), HEK293 cells were washed with PBS and then 1 ml L15 medium supplemented with 2 mg/ml D-glucose. Cells were equilibrated for about 10 minutes at 37° C. in a FCS2 live cell imaging chamber (Bioptechs, Butler, Pa.). […]
Therefore, it was tested whether the anti-EPCR antibody relieved the rhAPC-induced inhibition of neutrophil adhesion on FN. […] Since the ligand will only bind to cell surface receptors, optical measurements were confined to the plasma membrane using through the objective total internal reflection fluorescence (TIRF).

β1 integrins, sequence (P05556 21-798): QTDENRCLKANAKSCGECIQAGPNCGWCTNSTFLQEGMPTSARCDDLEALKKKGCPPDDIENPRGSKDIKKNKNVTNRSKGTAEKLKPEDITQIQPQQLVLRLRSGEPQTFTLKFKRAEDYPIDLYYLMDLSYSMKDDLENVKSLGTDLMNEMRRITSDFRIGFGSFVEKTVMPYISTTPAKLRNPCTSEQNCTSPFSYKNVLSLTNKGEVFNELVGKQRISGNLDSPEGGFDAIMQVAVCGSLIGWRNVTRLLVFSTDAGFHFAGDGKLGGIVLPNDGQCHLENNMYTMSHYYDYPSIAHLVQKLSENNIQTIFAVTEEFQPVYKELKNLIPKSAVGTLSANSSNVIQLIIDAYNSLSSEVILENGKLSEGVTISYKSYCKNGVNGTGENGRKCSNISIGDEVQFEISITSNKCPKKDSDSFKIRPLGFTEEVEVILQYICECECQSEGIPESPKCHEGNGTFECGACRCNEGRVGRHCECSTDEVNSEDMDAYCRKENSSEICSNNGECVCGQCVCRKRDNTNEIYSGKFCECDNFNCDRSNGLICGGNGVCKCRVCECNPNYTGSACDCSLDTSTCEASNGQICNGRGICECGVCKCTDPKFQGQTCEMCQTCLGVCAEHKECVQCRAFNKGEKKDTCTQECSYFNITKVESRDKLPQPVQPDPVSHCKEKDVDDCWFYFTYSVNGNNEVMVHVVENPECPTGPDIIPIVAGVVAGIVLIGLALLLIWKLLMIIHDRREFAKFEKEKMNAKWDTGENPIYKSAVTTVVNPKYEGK
T2 sequence (P26006 33-872 limits assumed): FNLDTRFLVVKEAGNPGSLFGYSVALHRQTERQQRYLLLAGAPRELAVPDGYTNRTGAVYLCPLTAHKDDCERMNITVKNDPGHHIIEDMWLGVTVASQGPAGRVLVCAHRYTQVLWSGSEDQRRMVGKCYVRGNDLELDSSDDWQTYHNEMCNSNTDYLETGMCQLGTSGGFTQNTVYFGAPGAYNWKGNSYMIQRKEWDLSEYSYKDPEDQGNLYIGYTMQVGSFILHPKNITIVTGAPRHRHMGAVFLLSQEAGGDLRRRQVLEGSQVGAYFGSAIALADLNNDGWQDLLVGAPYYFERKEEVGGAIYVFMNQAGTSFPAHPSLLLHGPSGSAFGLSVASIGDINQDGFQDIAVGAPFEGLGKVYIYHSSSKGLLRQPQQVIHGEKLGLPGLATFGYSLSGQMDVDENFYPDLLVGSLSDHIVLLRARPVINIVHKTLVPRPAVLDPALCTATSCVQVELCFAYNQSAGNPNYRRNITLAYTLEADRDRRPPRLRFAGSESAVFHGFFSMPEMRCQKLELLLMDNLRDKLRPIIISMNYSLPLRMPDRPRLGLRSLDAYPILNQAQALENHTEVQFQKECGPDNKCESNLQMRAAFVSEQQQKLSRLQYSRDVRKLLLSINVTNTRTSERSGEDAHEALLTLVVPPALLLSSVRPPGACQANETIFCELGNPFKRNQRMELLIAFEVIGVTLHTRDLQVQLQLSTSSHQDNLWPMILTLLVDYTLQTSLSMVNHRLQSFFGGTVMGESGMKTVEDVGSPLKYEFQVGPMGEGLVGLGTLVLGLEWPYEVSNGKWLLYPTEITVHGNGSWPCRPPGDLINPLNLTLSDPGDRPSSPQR
T2 sequence (P26006 876-1051 partner limits assumed): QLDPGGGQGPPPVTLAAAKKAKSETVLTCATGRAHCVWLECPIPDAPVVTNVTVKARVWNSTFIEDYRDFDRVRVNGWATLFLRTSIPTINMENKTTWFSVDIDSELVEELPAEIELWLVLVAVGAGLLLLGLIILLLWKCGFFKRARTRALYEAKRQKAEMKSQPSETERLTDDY
T2 sequence (P05556 21-798): as the sequence (P05556 21-798) above
T5 sequence (Q9UNN8 18-238): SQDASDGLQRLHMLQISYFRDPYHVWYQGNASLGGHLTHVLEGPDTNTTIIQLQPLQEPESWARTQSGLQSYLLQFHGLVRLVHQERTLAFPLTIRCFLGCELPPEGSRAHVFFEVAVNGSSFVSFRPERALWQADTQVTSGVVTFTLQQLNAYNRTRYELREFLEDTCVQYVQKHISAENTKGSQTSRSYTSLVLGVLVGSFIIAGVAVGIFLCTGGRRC
T5 sequence (P05556 21-798): as the sequence (P05556 21-798) above
T4 sequence (P06756 31-889 limits assumed, one chain of several): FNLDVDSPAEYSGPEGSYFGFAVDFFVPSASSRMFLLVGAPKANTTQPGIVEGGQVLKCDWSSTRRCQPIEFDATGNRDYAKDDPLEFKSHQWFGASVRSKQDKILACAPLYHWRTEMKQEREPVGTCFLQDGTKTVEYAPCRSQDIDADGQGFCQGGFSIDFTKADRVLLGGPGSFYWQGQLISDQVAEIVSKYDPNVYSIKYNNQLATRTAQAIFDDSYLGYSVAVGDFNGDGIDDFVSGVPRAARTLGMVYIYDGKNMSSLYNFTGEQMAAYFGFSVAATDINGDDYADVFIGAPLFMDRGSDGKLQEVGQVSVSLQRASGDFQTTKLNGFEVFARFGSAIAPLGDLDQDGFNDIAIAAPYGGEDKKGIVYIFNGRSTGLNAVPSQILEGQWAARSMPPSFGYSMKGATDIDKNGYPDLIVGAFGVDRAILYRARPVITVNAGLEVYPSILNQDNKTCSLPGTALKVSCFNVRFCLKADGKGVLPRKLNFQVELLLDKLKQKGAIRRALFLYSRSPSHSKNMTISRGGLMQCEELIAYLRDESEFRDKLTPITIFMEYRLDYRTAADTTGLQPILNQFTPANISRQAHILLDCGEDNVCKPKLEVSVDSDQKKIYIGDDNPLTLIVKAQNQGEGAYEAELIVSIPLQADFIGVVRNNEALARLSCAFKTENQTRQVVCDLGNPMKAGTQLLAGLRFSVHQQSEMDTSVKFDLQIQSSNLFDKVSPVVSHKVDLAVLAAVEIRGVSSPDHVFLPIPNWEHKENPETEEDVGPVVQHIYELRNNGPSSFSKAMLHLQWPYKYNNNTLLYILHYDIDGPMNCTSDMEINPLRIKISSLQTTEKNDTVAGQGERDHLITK
T4 sequence (P06756 891-1048 partner limits assumed, one chain of several): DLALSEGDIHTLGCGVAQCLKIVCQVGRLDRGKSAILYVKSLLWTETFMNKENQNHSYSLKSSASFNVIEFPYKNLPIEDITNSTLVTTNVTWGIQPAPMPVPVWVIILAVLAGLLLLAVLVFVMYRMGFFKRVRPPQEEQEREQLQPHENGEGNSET
T3 sequence (P08648 42-894 limits assumed): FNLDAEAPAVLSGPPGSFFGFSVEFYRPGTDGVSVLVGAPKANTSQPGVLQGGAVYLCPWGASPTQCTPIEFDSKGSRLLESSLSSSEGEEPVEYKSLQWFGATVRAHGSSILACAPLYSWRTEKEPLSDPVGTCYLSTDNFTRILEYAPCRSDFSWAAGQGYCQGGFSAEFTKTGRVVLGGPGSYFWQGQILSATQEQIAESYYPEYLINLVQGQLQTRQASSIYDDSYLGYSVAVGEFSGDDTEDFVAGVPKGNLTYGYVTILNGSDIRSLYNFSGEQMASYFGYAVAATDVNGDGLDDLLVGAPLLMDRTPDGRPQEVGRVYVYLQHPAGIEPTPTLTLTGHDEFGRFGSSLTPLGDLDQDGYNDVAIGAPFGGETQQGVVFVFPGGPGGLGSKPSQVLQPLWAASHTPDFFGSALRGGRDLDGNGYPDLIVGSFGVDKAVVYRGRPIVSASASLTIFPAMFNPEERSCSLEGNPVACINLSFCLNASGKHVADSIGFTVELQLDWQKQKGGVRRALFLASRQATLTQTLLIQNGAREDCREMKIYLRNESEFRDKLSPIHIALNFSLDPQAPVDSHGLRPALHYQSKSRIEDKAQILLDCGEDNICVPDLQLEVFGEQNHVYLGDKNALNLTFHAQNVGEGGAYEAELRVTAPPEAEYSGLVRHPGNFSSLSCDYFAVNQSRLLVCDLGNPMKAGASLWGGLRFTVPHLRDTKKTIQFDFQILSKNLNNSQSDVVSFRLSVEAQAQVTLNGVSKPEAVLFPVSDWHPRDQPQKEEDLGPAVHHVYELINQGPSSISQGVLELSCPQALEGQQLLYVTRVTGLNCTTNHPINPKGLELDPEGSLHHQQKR
T3 sequence (P08648 895-1049 partner limits assumed): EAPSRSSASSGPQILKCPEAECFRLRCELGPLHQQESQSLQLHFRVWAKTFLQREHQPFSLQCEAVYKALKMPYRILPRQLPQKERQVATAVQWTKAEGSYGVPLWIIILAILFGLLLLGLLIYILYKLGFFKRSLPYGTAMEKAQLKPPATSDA
T3 sequence (P05556 21-798): as the sequence (P05556 21-798) above

FC(F)(F)c1cccc(-c2noc(-c3cc(-c4ccccc4)c(C(F)(F)F)s3)n2)c1 [SEW2871, reference compound]
reversal of the inhibitory effect of rhAPC on neutrophil migration (human neutrophils [1]): did not reverse

SFLLRNPNDKYEPF (Aritficial Sequence) [reference compound]
reversal of the inhibitory effect of rhAPC on neutrophil migration (human neutrophils [1]): did not reverse

acetyl-c[(penicillamine)-O-methyltyrosine-ARGDN(tetrahydroisoquinoline-3-carboxylic acid)C]—NH2 [RGD peptide]
affinity to β3 integrins (β3 integrins): high affinity
mortality [2]: 60%
affinity to β1 integrins (β1 integrins): high affinity
7-day mortality (septic mice): no significant change
time of survival (septic mice): reproducibly prolonged

rhPC: the zymogen protein C, not activated [reference compound]
fMLP-induced adhesion of human neutrophils to immobilized FN (human neutrophils [3]): failed to block
random migration of neutrophils on FN induced by fMLP (human neutrophils [1]): failed to block

B1: RGE-APC: rhAPC mutant with the RGD sequence mutated to RGE (Glu in place of Asp-222) (protein)
chain 1: ANSFLEELRHSSLERECIEEICDFEEAKEIFQNVDDTLAFWSKHVDGDQCLVLPLEHPCASLCCGHGTCIDGIGSFSCDCRSGWEGRFCQREVSFLNCSLDNGGCTHYCLEEVGWRRCSCAPGYKLGDDLLQCHPAVKFPCGRPWKRMEKKRSHL
chain 2: LIDGKMTRRGESPWQVVLLDSKKKLACGAVLIHPSWVLTAAHCMDESKKLLVRLGEYDLRRWEKWELDLDIKEVFVHPNYSKSTTDNDIALLHLAQPATLSQTIVPICLPDSGLAERELNQAGQETLVTGWGYHSSREKEAKRNRTFVLNFIKIPVVPHNECSEVMSNMVSENMLCAGILGDRQDACEGDSGGPMVASFHGTWFLVGLVSWGEGCGLLHNYGVYTKVSRYLDWIHGHIRDKEAPQKSWAP
random migration of neutrophils on FN induced by fMLP (human neutrophils [1]): had no effect
direct binding to soluble α3β1 (α3β1): significantly less
direct binding to soluble α5β1 (α5β1): significantly less
direct binding to soluble αVβ3 (αVβ3): significantly less

B2: Gla-less APC: mutant form of APC that lacks the EPCR binding motif (Enzyme Research Lab.) (protein)
chain: SKHVDGDQCLVLPLEHPCASLCCGHGTCIDGIGSFSCDCRSGWEGRFCQREVSFLNCSLDNGGCTHYCLEEVGWRRCSCAPGYKLGDDLLQCHPAVKFPCGRPWKRMEKKRSHLLIDGKMTRRGDSPWQVVLLDSKKKLACGAVLIHPSWVLTAAHCMDESKKLLVRLGEYDLRRWEKWELDLDIKEVFVHPNYSKSTTDNDIALLHLAQPATLSQTIVPICLPDSGLAERELNQAGQETLVTGWGYHSSREKEAKRNRTFVLNFIKIPVVPHNECSEVMSNMVSENMLCAGILGDRQDACEGDSGGPMVASFHGTWFLVGLVSWGEGCGLLHNYGVYTKVSRYLDWIHGHIRDKEAPQKSWAP
FRET efficiency between EPCR-mCFP and β1-mYFP (hEPCR-mCFP and β1-mYFP): No obvious FRET change
fMLP-induced adhesion of human neutrophils to immobilized FN (human neutrophils [3]): inhibited adhesion to a slightly less, but similar, degree as the wild type protein
